Experimental data reported in article PMC6104695 (Virulence, 2017).
Values after ≈ are worked out from the molar mass of the structure shown. Values joined by “and” are separate entries in the source; they are usually repeats but may differ in a detail not shown here. Equal values may be shown once. Ends that are not written are not given here. Peptide text beside a SMILES is read from it.

Columns and labels:
[1] = test system: B. anthracis Sterne spores; design: species or system Galleria mellonella; conditions: in vivo
[2] = test system: B. anthracis Sterne spores; test: microbe, parasite or virus in culture; conditions: Bacillus anthracis, 3 h, pH 7.4, read-out: Sporicidal EC50 (95% Confidence Interval)
[3] = test system: B. anthracis Sterne vegetative bacteria; conditions: 24 h
[4] = test system: B. anthracis; conditions: mouse, in vivo, sc; cited from earlier work

With O=C(O)c1cn(C2CC2)c2cc(N3CCNCC3)c(F)cc2c1=O [Ciprofloxacin] the “Rescue of infected waxworms by ciprofloxacin” value [1] was 100%, the “Survival (%) of B. anthracis infected G. mellonella larvae” value [1] was 100% and the EC50 [2] was 70.8 µg/mL and > 100 µM.

With “GLKLRFEFSKIKGEFLKTPEVRFRDIKLKDNRISVQR [Scrambled LL-37]” the MIC [3] was >150 µM.

In the case of CC(C)C[C@H](NC(=O)[C@H](CCCNC(=N)N)NC(=O)CNC(=O)CNC(=O)[C@@H](N)CCCNC(=N)N)C(=O)N[C@@H](CS)C(=O)N[C@@H](Cc1ccc(O)cc1)C(=O)N[C@@H](CS)C(=O)N[C@@H](CCCNC(=N)N)C(=O)N[C@@H](CCCNC(=N)N)C(=O)N[C@@H](CCCNC(=N)N)C(=O)N[C@@H](Cc1ccccc1)C(=O)N[C@@H](CS)C(=O)N[C@H](C(=O)N[C@@H](CS)C(=O)N[C@H](C(=O)NCC(=O)N[C@@H](CCCNC(=N)N)C(=O)O)C(C)C)C(C)C [PG-1] (H-RGGRLCYCRRRFCVCVGR-OH; N-terminus and C-terminus assumed), the MIC [3] is listed as 7.41 µM (≈ 16 µg/mL) and the “Survival of infected mice” value [4] is listed as 80%.

Molecule “GLLRKGGEKIGEKLKKIGQKIKNFFQKLVPQPEQ [mCRAMP]” has an MIC [3] of 16.5 µM.

For CC[C@H](C)[C@H](NC(=O)[C@H](CCCCN)NC(=O)[C@H](CCC(=O)O)NC(=O)[C@H](CCCCN)NC(=O)[C@H](CO)NC(=O)[C@H](CCCCN)NC(=O)[C@H](CCCNC(=N)N)NC(=O)[C@H](Cc1ccccc1)NC(=O)[C@H](Cc1ccccc1)NC(=O)[C@H](CC(=O)O)NC(=O)CNC(=O)[C@H](CC(C)C)NC(=O)[C@@H](N)CC(C)C)C(=O)NCC(=O)N[C@@H](CCCCN)C(=O)N[C@@H](CCC(=O)O)C(=O)N[C@@H](Cc1ccccc1)C(=O)N[C@@H](CCCCN)C(=O)N[C@@H](CCCNC(=N)N)C(=O)N[C@H](C(=O)N[C@H](C(=O)N[C@@H](CCC(N)=O)C(=O)N[C@@H](CCCNC(=N)N)C(=O)N[C@H](C(=O)N[C@@H](CCCCN)C(=O)N[C@@H](CC(=O)O)C(=O)N[C@@H](Cc1ccccc1)C(=O)N[C@@H](CC(C)C)C(=O)N[C@@H](CCCNC(=N)N)C(=O)N[C@@H](CC(N)=O)C(=O)N[C@@H](CC(C)C)C(=O)N[C@H](C(=O)N1CCC[C@H]1C(=O)N[C@@H](CCCNC(=N)N)C(=O)N[C@H](C(=O)N[C@@H](CCC(=O)O)C(=O)N[C@@H](CO)C(=O)O)[C@@H](C)O)C(C)C)[C@@H](C)CC)C(C)C)[C@@H](C)CC [LL-37], the MIC [3] was 7.12 µM (≈ 32 µg/mL).
